# Laboratory results published in ChEMBL document CHEMBL2203039, “Azabenzthiazole inhibitors of leukotriene A₄ hydrolase” (Bioorg Med Chem Lett, 2012).
# Target: Voltage-gated inwardly rectifying potassium channel KCNH2 (Homo sapiens, UniProt Q12809)
# Assay: Inhibition of dofetilide binding to human ERG by radioligand binding assay
# Sequence of Voltage-gated inwardly rectifying potassium channel KCNH2 (Q12809 whole entry): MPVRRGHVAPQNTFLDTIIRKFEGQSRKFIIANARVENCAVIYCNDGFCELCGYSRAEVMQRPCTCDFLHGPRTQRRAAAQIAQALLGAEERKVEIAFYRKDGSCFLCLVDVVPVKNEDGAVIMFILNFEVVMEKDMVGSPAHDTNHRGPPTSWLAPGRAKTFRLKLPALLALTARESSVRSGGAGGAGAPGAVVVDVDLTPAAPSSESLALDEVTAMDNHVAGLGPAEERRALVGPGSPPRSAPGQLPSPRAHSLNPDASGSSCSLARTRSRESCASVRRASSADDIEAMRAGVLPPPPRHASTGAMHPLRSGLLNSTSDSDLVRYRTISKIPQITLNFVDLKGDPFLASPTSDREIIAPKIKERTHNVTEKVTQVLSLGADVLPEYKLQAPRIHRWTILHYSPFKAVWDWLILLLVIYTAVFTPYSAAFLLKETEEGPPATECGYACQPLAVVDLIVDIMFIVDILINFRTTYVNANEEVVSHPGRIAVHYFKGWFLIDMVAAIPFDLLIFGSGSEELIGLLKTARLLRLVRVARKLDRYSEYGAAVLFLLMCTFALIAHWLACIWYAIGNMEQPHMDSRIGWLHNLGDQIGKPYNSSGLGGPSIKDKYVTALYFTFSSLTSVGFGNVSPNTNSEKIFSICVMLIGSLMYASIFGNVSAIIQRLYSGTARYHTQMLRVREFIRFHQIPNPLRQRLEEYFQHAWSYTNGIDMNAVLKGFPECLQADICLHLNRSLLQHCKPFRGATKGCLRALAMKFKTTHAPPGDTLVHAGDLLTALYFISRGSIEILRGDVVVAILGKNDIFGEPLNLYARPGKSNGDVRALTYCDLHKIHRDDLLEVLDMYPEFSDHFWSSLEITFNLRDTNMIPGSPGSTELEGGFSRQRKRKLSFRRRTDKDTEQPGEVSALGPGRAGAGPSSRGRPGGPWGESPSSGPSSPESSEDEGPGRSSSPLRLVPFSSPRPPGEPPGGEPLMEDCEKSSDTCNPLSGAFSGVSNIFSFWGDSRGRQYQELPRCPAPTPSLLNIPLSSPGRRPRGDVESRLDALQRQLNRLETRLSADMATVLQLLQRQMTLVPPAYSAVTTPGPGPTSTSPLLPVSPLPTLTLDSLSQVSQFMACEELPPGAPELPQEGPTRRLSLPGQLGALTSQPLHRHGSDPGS
smiles,measurement,value
O=C1CCCN1C1CCN(CCc2ccc(Oc3nc4ncccc4s3)cc2)CC1,IC50,> 10 µM
